Data on one molecule can be found in paper PMC3559838 (PLoS ONE, 2013).

Data set [1] relates to HepG2 cells. As to the kind of experiment: Gentian Violet viability staining, 24-well plates. In kind it is cell-based, human. Particulars: 0–10 µM, 72 h. The method, then: To the other plate, equal molar concentrations of belinostat-G were added similarly. After 72 h, cells were stained with Gentian Violet paint (0.5% w/v; B.P.) and assessed for viability. […] After incubating 24 h, 100-µL drug solution or blank medium was added into each well of 96-well plates. 72 h later, 20 µL of MTS/PES was added into each well for incubation for 3 h. OD values are measured on wavelength 490 nm. Cell growth inhibition was calculated based on the […] with subtraction of background reading for only medium containing wells. The growth inhibition was defined as the percentage of the average […] from drug-treated wells over that from control wells without treatment. The experiment was done in triplicates. IC50 values were calculated using GraphPad PRISM software (GraphPad Software, Inc., La Jolla, CA, USA).

Details of data set [2]: method as in Investigator's Brochure, 2004. Particulars: dogs, ref Investigator's Brochure, 2004, cited from earlier work.
Details of data set [3]: method as in Investigator's Brochure, 2004. Particulars: arginine formulation, human blood ex vivo; ref Investigator's Brochure, 2004; cited from earlier work.

In the case of `O=C(/C=C/c1cccc(S(=O)(=O)Nc2ccccc2)c1)NO` [Belinostat, N-hydroxy-3-(phenylsulphamoylphenyl) acrylamide], the “cytotoxicity / cell viability (staining)” value in data set [1] is “significant dose-dependent cytotoxicity”. Further, the “increases in the rate of respiration” value in data set [2] (15 mg/kg and 35 mg/kg) was “not significantly different”. Besides, the heart rate result in data set [2] (high dose (35 mg/kg)) is given as “small transient increase in heart rate”. Further, the “electrocardiogram waveform changes (decrease in RR, PR and QT intervals)” value in data set [2] is given as “not substantially different from the control group”. The hemolysis result in data set [3] is recorded as “No hemolysis”.
